The values below come from US9890147B2 (BAYER PHARMA AKTIENGESELLSCHAFT, priority 2012, dated 2018).

For one experiment, the target named is T1, BRD4 (BD1) (Homo sapiens, UniProt O60885).
T1 construct: with relatively long constructs also being possible, preferably amino acids 44-168; made in house; host or cells: E. coli
Nature of the experiment: Binding assay BRD4/acetylated peptide H4 (TR-FRET protein-protein interaction assay). Summed up:
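His6-BRD4 BD1 (aa 67-152, E. coli), usually 10 nM, with biotinylated tetra-acetylated H4 peptide in HEPES pH 7.5 buffer; 11 compound concentrations 0.1 nM–20 μM in duplicate, 10 min preincubation, 1 h at 22 °C then ≥3 h at 4 °C. TR-FRET 665/620 ratio; IC50 by 4-parameter fit.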

Another experiment deals with MOLM-13 cells. Nature of the experiment: Cell proliferation assay (alamarBlue), MOLM-13. The experiment is classed as cell-based. To be noted: Homo sapiens, 96 hours incubation, inhibition of cell proliferation. The protocol:
In accordance with the invention, the capability of the substances to inhibit cell proliferation was determined Cell viability was determined using the alamarBlue® reagent (Invitrogen) in a Victor X3 Multilabel Reader (Perkin Elmer). The excitation wavelength was 530 nm and the emission wavelenth […].
The MOLM-13 cells (DSMZ, ACC 554) were sown at a concentration of 4000 cells/well in 100 μl growth medium (RPMI1640, 10% FCS) on 96-well microtitre plates.
After an overnight incubation at 37° C., the fluorescence values (CI values) were determined. The plates were then treated with various substance dilutions (1E-5 M, 3E-6 M, 1E-6M, 3E-7 M, 1E-7 M, 3E-8 M, 1E-8 M) and incubated at 37° C. for 72 (MV4-11-, LOX-IMVI cells), 96 (MOLM-13-, B16F10-, MDA-MB-431-, Caov-3 cells), 120 (MOLP-8-, KMS-12-PE cells) or 168 (LAPC-4 cells) hours. The fluorescence values (CO values) were then determined. For the data analysis, the CI values were subtracted from the CO values and the results were compared between cells treated with different dilutions of the substance or with buffer solution only. These were used to calculate the IC 50 values (substance concentration required for 50% inhibition of cell proliferation).
In general terms: The colour change of resazurin is a common sign of viable cells or microbes.

Molecules are shown by their SMILES.

A word on the IC50: it is the point on the concentration scale where inhibition reaches its midpoint. High values mean weaker potency, low ones greater potency. As to `CNC(=O)N1N=C(c2ccc(N3CCC(C)(O)CC3)cc2)c2cc(OC)c(OC)cc2C[C@@H]1C` [Example 188.2, (4S)-1-[4-(4-hydroxy-4-methylpiperidin-1-yl)phenyl]-7,8-dimethoxy-N,4-dimethyl-4,5-dihydro-3H-2,3-benzodiazepine-3-carboxamide], the IC50 on BRD4 (BD1) was found to be 30 nM; in the experiment on MOLM-13 cells, 70 nM.

Take `CNC(=O)N1N=C(c2ccc(Cl)cc2)c2cc(OCCCN3CCOCC3)ccc2CC1C` (racemic) [Example 165, (±)-1-(4-chlorophenyl)-N,4-dimethyl-8-[3-(morpholin-4-yl)propoxy]-4,5-dihydro-3H-2,3-benzodiazepine-3-carboxamide]: the results for the IC50 at BRD4 (BD1) and in the experiment on MOLM-13 cells were 130 nM and 880 nM, respectively.

`CNC(=O)N1N=C(c2ccc(N3CCCOC3=O)cc2)c2cc(OC)c(OC)cc2CC1C` (racemic) [Example 38, (±)-7,8-dimethoxy-N,4-dimethyl-1-[4-(2-oxo-1,3-oxazinan-3-yl)phenyl]-4,5-dihydro-3H-2,3-benzodiazepine-3-carboxamide]: the half-maximal inhibitory concentration (IC50) on BRD4 (BD1) is 120 nM; in the experiment on MOLM-13 cells, 730 nM.

Turning to `CNC(=O)N1N=C(c2ccc(N3CCN(C)CC3)cc2)c2cc(Cl)c(OC(F)(F)F)cc2CC1C` (racemic) [Example 213, (±)-8-chloro-N,4-dimethyl-1-[4-(4-methylpiperazin-1-yl)phenyl]-7-(trifluoromethoxy)-4,5-dihydro-3H-2,3-benzodiazepine-3-carboxamide], the IC50 on BRD4 (BD1) worked out at 360 nM; in the experiment with MOLM-13 cells, 860 nM.

Regarding `CNC(=O)N1N=C(c2ccc(-n3cncn3)cc2)c2cc(OC)c(OC)cc2CC1C` (racemic) [Example 152, (±)-7,8-Dimethoxy-N,4-dimethyl-1-[4-(1H-1,2,4-triazol-1-yl)phenyl]-4,5-dihydro-3H-2,3-benzodiazepine-3-carboxamide], the half-inhibitory concentration (IC50) on BRD4 (BD1) came out at 70 nM; in the experiment on MOLM-13 cells, 430 nM.

In the case of `CNC(=O)N1N=C(c2ccc(N3CCC(O)CC3)cc2)c2cc(OC)c(OC)cc2CC1C` (racemic) [Example 130, (±)-1-[4-(4-hydroxypiperidin-1-yl)phenyl]-7,8-dimethoxy-N,4-dimethyl-4,5-dihydro-3H-2,3-benzodiazepine-3-carboxamide], the IC50 at BRD4 (BD1) came to 30 nM; in the experiment with MOLM-13 cells, 170 nM.

Regarding `CNC(=O)N1N=C(c2ccc(-c3ccccc3C#N)cc2)c2cc(OC)c(OC)cc2CC1C` (racemic) [Example 109, (±)-1-(2′-cyanobiphenyl-4-yl)-7,8-dimethoxy-N,4-dimethyl-4,5-dihydro-3H-2,3-benzodiazepine-3-carboxamide], the IC50 worked out at 50 nM at BRD4 (BD1) and 1160 nM in the experiment on MOLM-13 cells.

In the case of `CNC(=O)N1N=C(c2ccc(-c3ccc(C(F)(F)F)nc3)cc2)c2cc(OC)c(OC)cc2CC1C` (racemic) [Example 50, (±)-7,8-dimethoxy-N,4-dimethyl-1-{4-[6-(trifluoromethyl)pyridin-3-yl]phenyl}-4,5-dihydro-3H-2,3-benzodiazepine-3-carboxamide], the half-inhibitory concentration (IC50) was found to be 150 nM at BRD4 (BD1) and 560 nM in the experiment on MOLM-13 cells.

Take `CC[C@H]1Cc2cc(OC)c(OC)cc2C(c2ccc(N3CCOCC3)cc2)=NN1C(=O)NC` [Example 209, (4S)-4-ethyl-7,8-dimethoxy-N-methyl-1-[4-(morpholin-4-yl)phenyl]-4,5-dihydro-3H-2,3-benzodiazepine-3-carboxamide]: the IC50 came to 370 nM on BRD4 (BD1) and 190 nM in the experiment with MOLM-13 cells.

Turning to `CNC(=O)N1N=C(c2ccc(-c3c(C)noc3C)cc2)c2cc(N3CCOCC3)ccc2CC1C` (racemic) [Example 176, (±)-1-[4-(3,5-Dimethylisoxazol-4-yl)phenyl]-N,4-dimethyl-8-(morpholin-4-yl)-4,5-dihydro-3H-2,3-benzodiazepine-3-carboxamide], the 50% inhibitory concentration (IC50) at BRD4 (BD1) is 40 nM; in the experiment on MOLM-13 cells, 520 nM.

Consider `CNC(=O)N1N=C(c2ccc(N3CCN(CCO)CC3)cc2)c2ccc(OC(F)(F)F)cc2CC1C` (racemic) [Example 218, (±)-1-{4-[4-(2-hydroxyethyl)piperazin-1-yl]phenyl}-N,4-dimethyl-7-(trifluoromethoxy)-4,5-dihydro-3H-2,3-benzodiazepine-3-carboxamide], for which the IC50 at BRD4 (BD1) is 880 nM; in the experiment on MOLM-13 cells, 300 nM.

As to `CNC(=O)N1N=C(c2ccc(-c3ccc([N+](=O)[O-])cc3)cc2)c2cc(OC)c(OC)cc2CC1C` (racemic) [Example 102, (±)-7,8-dimethoxy-N,4-dimethyl-1-(4′-nitrobiphenyl-4-yl)-4,5-dihydro-3H-2,3-benzodiazepine-3-carboxamide], the IC50 on BRD4 (BD1) was 90 nM; in the experiment with MOLM-13 cells, 960 nM.

Turning to `CNC(=O)N1N=C(c2ccc(-c3ccccc3Cl)cc2)c2cc(OC)c(OC)cc2CC1C` (racemic) [Example 92, (±)-1-(2′-chlorobiphenyl-4-yl)-7,8-dimethoxy-N,4-dimethyl-4,5-dihydro-3H-2,3-benzodiazepine-3-carboxamide], the IC50 at BRD4 (BD1) is 180 nM; in the experiment on MOLM-13 cells it was 850 nM.

With `CNC(=O)N1N=C(c2ccc(N3C[C@@H](C)NC[C@@H]3C)cc2)c2cc(OC)c(OC)cc2CC1C` (mixture of isomers) [Example 192, (±)-1-{4-[(2S,5R)-2,5-dimethylpiperazin-1-yl]phenyl}-7,8-dimethoxy-N,4-dimethyl-4,5-dihydro-3H-2,3-benzodiazepine-3-carboxamide], the IC50 stood at 90 nM at BRD4 (BD1) and 270 nM in the experiment with MOLM-13 cells.

As for `CNC(=O)N1N=C(c2ccc(N3CCNCC3=O)cc2)c2cc(OC)c(OC)cc2CC1C` (racemic) [Example 44, (±)-7,8-Dimethoxy-N,4-dimethyl-1-[4-(2-oxopiperazin-1-yl)phenyl]-4,5-dihydro-3H-2,3-benzodiazepine-3-carboxamide], the 50% inhibitory concentration (IC50) amounted to 50 nM at BRD4 (BD1) and 210 nM with MOLM-13 cells.

Turning to `CNC(=O)N1N=C(c2ccc(-c3cnc(OC)nc3)cc2)c2cc(OC)c(OC)cc2CC1C` (racemic) [Example 74, (±)-7,8-dimethoxy-1-[4-(2-methoxypyrimidin-5-yl)phenyl]-N,4-dimethyl-4,5-dihydro-3H-2,3-benzodiazepine-3-carboxamide], the IC50 on BRD4 (BD1) worked out at 80 nM; with MOLM-13 cells, 550 nM.

For the compound `CNC(=O)N1N=C(c2ccc(-c3ccccc3NS(C)(=O)=O)cc2)c2cc(OC)c(OC)cc2CC1C` (racemic) [Example 68, (±)-7,8-dimethoxy-N,4-dimethyl-1-{2′-[(methylsulphonyl)amino]-biphenyl-4-yl}-4,5-dihydro-3H-2,3-benzodiazepine-3-carboxamide], the IC50 turned out to be 70 nM on BRD4 (BD1) and 1170 nM with MOLM-13 cells.

For the compound `CCc1cc(C2CC2)nn1-c1ccc(C2=NN(C(=O)NC)[C@@H](C)Cc3ccc(OC)cc32)cc1` [Example 24], the IC50 at BRD4 (BD1) was 250 nM; with MOLM-13 cells, 1170 nM.

As to `CNC(=O)N1N=C(c2ccc(F)c(-c3cnn(C)c3)c2)c2cc(OC)c(OC)cc2CC1C` (racemic) [Example 57, (±)-1-[4-fluoro-3-(1-methyl-1H-pyrazol-4-yl)phenyl]-7,8-dimethoxy-N,4-dimethyl-4,5-dihydro-3H-2,3-benzodiazepine-3-carboxamide], the half-maximal inhibitory concentration (IC50) at BRD4 (BD1) was 90 nM; in the experiment on MOLM-13 cells, 790 nM.

`CNC(=O)N1N=C(c2ccc(N3CCN(C)CC3=O)cc2)c2cc(OC)c(OC)cc2C[C@H]1C` [Example 43.2, (4R)-7,8-dimethoxy-N,4-dimethyl-1-[4-(4-methyl-2-oxopiperazin-1-yl)phenyl]-4,5-dihydro-3H-2,3-benzodiazepine-3-carboxamide]: the concentration for half-maximal inhibition (IC50) on BRD4 (BD1) came out at 4520 nM; in the experiment with MOLM-13 cells, 9850 nM.
